These results are taken from PMC12406652 (Antimicrobial Agents and Chemotherapy, 2025).

A short description of the data set: Drug-drug interaction, single dose CTB 400 mg + LED-E 500 mg, cross-over (VNRX-7145-102 Part 1). The following applies: human, plasma, oral.

Take `CCC(=O)N[C@H]1Cc2cccc(C(=O)OCOC(=O)C(CC)CC)c2OB1O` [Ledaborbactam etzadroxil]: the AUC(0-inf) turned out to be 1070 ng·h/mL and the Cmax was 787 ng/mL. For the same compound, under “500 mg”, the AUC(0-inf) turned out to be 1140 ng·h/mL and the Cmax was 1040 ng/mL.
